In US20120028917A1, “Use Of N-(4-((3-(2-Amino-4-Pyrimidinyl)-2-Pyridinyl)Oxy)Phenyl)-4-(4-Methyl-2-Thienyl)-1-Phthalazinamine In The Treatment Of Antimitotic Agent Resistant Cancer” (Amgen Inc., priority 2009, published 2012):
pEC50: −log10 of the molar value.

Columns and labels:
Assay in all cases: Antiproliferative assay (ArrayScan VTi)
Type in all cases: cell-based
[1] = system: A549; details: Homo sapiens; A549 (Lung); 24 h treatment, then 48 h without compound
Procedure: (§1) Tumor cells were seeded in a Packard View 96-well plate in 100 μL of appropriate complete media at a density of 3000 or 5000 cells/well depending on the cell line growth kinetics (broadly defined as slow vs. fast). All dilutions were performed using Biomek FX workstation. The next day cells were treated with AMG 900 (11-point dose range 0.156 to 0.0003 μM) with a final DMSO concentration of 0.12% in media. After 24 hours, the media containing compound was removed and the cells were washed with complete media. The cells were then incubated in 100 μL of fresh complete media (without compound) for 48 hours. After 48 hours, the cells were fixed by adding 100 μL of fixation buffer to 100 μL of complete media. The cells were incubated at room temperature for 10 minutes. The fixation buffer was aspirated and the cells were then permeabilized in 100 μL wash buffer for 30 minutes at room temperature followed by the addition of 100 μL of DNA stain buffer and incubated at room temperature for 30 minutes in the dark. Next, the cells were washed with 100 μL of wash buffer and stored in 100 μL 1×PBS at 4 degrees Celsius until analysis. Cellular data was attained by scanning the 96-well plates on an ArrayScan VTi imaging system (Cellomics). Quantification of individual cell nuclear area and intensity was performed based on Hoechst 33342 DNA dye fluorescence. A threshold on the nuclear area based on the DMSO-treated control well was set to quantify the number of normal size nuclei from nuclear debris and polyploidy cells. This threshold value was applied to enumerate the number of normal nuclei in six image fields/well using a magnification of 10×. The dose-concentration curves and EC50 values were calculated using a 4-parameter equation.

[2] = system: MCF7-p53+; details: Homo sapiens; MCF7-p53+ (Breast); 24 h treatment, then 48 h without compound
Procedure: as §1

[3] = system: 769P; details: Homo sapiens; 769P* (Kidney), paclitaxel-resistant; 24 h treatment, then 48 h without compound
Procedure: as §1

[4] = system: SW480; details: Homo sapiens; SW480 (Colon); 24 h treatment, then 48 h without compound
Procedure: as §1

[5] = system: SW620; details: Homo sapiens, SW-620; SW620 (Colon); 24 h treatment, then 48 h without compound
Procedure: as §1

[6] = system: SK-MEL-2; details: Homo sapiens; SK-MEL-2 (Skin); 24 h treatment, then 48 h without compound
Procedure: as §1

[7] = system: PC3; details: Homo sapiens, PC-3; PC3 (Prostate); 24 h treatment, then 48 h without compound
Procedure: as §1

[8] = system: HCT15; details: Homo sapiens, HCT-15; HCT15* (Colon), paclitaxel-resistant; 24 h treatment, then 48 h without compound
Procedure: as §1

[9] = system: SK-OV-3; details: Homo sapiens; SK-OV-3 (Ovarian); 24 h treatment, then 48 h without compound
Procedure: as §1

[10] = system: MES-SA Dx5; details: Homo sapiens; MES-SA Dx5* (Uterine), paclitaxel-resistant; 24 h treatment, then 48 h without compound
Procedure: as §1

[11] = system: MCF7-p53−; details: Homo sapiens; MCF7-p53− (Breast); 24 h treatment, then 48 h without compound
Procedure: as §1

[12] = system: HOP-62; details: Homo sapiens; HOP-62 (Lung); 24 h treatment, then 48 h without compound
Procedure: as §1

[13] = system: SK-HEP-1; details: Homo sapiens, SK-HEP1; SK-HEP-1 (Liver); 24 h treatment, then 48 h without compound
Procedure: as §1

[14] = system: BT549; details: Homo sapiens, BT-549; BT549 (Breast); 24 h treatment, then 48 h without compound
Procedure: as §1

[15] = system: HCT 116_JH_p21−/−; details: Homo sapiens; HCT 116_JH_p21−/− (Colon); 24 h treatment, then 48 h without compound
Procedure: as §1

[16] = system: DU145; details: Homo sapiens, DU-145; DU145 (Prostate); 24 h treatment, then 48 h without compound
Procedure: as §1

[17] = system: CAKI-1; details: Homo sapiens; CAKI-1 (Kidney); 24 h treatment, then 48 h without compound
Procedure: as §1

[18] = system: HOP-92; details: Homo sapiens; HOP-92 (Lung); 24 h treatment, then 48 h without compound
Procedure: as §1

[19] = system: MDA-MB-231; details: Homo sapiens; MDA-MB-231 (Breast); 24 h treatment, then 48 h without compound
Procedure: as §1

[20] = system: CAL51; details: Homo sapiens, CAL-51; CAL51 (Breast); 24 h treatment, then 48 h without compound
Procedure: as §1

[21] = system: T47D; details: Homo sapiens; T47D (Breast); 24 h treatment, then 48 h without compound
Procedure: as §1

[22] = system: SNU449; details: Homo sapiens, SNU-449; SNU449* (Liver), paclitaxel-resistant; 24 h treatment, then 48 h without compound
Procedure: as §1

[23] = system: A498; details: Homo sapiens; A498 (Kidney); 24 h treatment, then 48 h without compound
Procedure: as §1

[24] = system: NCI-H460; details: Homo sapiens; NCI-H460 (Lung); 24 h treatment, then 48 h without compound
Procedure: as §1

[25] = system: HT29; details: Homo sapiens, HT-29; HT29 (Colon); 24 h treatment, then 48 h without compound
Procedure: as §1

In the case of `Cc1csc(-c2nnc(Nc3ccc(Oc4ncccc4-c4ccnc(N)n4)cc3)c3ccccc23)c1` [AMG 900, N-(4-((3-(2-amino-4-pyrimidinyl)-2-pyridinyl)oxy)phenyl)-4-(4-methyl-2-thienyl)-1-phthalazinamine], the pEC50 [1] was 9.00, the pEC50 [2] was 9.00 and the pEC50 [3] was 8.70. It also gave a pEC50 [4] of 8.70, a pEC50 [5] of 8.70 and a pEC50 [6] of 8.70. It also gave a pEC50 [7] of 8.70, a pEC50 [8] of 8.70 and a pEC50 [9] of 8.70. The pEC50 [10] was 9.00, the pEC50 [11] was 8.52 and the pEC50 [12] was 8.70. The pEC50 [13] was 9.00, the pEC50 [14] was 8.40 and the pEC50 [15] was 9.00. The pEC50 [16] was 8.70, the pEC50 [17] was 9.00 and the pEC50 [18] was 8.70. The pEC50 [19] was 8.70, the pEC50 [20] was 8.70 and the pEC50 [21] was 8.30. It also gave a pEC50 [22] of 8.70, a pEC50 [23] of 9.00 and a pEC50 [24] of 9.00. For the same molecule, the pEC50 [25] was 8.30.
